Results on 15 molecules are retold here after ChEMBL document CHEMBL4376860, “Discovery of Novel Dual Poly(ADP-ribose)polymerase and Phosphoinositide 3-Kinase Inhibitors as a Promising Strategy for Cancer Therapy” (J Med Chem, 2020).

The target in experiment [1] is Poly [ADP-ribose] polymerase 1 (Homo sapiens, UniProt P09874). Description: Inhibition of recombinant human PARP1 using histone as substrate after 1 hr in presence of biotinylated NAD+ by ELISA. (ELISA stands for enzyme-linked immunosorbent assay.)
Sequence of Poly [ADP-ribose] polymerase 1 (P09874 whole entry, canonical isoform): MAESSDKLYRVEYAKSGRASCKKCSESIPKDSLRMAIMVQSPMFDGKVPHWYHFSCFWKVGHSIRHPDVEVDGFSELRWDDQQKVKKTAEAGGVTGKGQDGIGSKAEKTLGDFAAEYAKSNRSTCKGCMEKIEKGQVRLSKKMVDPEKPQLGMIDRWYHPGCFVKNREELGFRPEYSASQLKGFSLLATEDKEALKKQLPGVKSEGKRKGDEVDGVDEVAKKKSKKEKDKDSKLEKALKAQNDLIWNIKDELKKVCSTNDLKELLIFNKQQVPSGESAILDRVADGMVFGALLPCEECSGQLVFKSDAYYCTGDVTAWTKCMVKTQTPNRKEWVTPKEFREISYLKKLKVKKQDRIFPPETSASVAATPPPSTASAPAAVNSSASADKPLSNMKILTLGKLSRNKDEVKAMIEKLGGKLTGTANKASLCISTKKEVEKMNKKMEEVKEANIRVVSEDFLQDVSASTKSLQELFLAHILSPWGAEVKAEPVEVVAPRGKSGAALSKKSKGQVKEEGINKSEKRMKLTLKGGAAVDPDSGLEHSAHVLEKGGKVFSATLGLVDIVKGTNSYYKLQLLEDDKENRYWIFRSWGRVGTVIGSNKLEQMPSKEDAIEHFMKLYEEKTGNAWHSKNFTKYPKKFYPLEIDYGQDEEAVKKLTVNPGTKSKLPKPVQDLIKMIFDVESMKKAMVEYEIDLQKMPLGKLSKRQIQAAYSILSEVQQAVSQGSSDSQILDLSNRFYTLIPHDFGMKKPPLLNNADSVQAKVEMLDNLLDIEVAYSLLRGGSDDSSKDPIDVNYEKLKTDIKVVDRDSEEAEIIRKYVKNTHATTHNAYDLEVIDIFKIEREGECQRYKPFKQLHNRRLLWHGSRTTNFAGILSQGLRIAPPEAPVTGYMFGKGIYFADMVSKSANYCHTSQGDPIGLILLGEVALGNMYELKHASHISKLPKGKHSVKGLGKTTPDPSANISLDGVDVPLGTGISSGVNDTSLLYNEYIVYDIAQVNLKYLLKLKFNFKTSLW
The target in experiment [2] is Phosphatidylinositol 4,5-bisphosphate 3-kinase catalytic subunit alpha isoform (Homo sapiens, UniProt P42336). Description: Inhibition of PI3Kalpha (unknown origin) using PIP2 as substrate measured after 1 hr by ADP-glo plus luminescence assay. Background: In ADP-Glo the light output rises with the ADP produced.
Sequence of Phosphatidylinositol 4,5-bisphosphate 3-kinase catalytic subunit alpha isoform (P42336 whole entry, canonical isoform): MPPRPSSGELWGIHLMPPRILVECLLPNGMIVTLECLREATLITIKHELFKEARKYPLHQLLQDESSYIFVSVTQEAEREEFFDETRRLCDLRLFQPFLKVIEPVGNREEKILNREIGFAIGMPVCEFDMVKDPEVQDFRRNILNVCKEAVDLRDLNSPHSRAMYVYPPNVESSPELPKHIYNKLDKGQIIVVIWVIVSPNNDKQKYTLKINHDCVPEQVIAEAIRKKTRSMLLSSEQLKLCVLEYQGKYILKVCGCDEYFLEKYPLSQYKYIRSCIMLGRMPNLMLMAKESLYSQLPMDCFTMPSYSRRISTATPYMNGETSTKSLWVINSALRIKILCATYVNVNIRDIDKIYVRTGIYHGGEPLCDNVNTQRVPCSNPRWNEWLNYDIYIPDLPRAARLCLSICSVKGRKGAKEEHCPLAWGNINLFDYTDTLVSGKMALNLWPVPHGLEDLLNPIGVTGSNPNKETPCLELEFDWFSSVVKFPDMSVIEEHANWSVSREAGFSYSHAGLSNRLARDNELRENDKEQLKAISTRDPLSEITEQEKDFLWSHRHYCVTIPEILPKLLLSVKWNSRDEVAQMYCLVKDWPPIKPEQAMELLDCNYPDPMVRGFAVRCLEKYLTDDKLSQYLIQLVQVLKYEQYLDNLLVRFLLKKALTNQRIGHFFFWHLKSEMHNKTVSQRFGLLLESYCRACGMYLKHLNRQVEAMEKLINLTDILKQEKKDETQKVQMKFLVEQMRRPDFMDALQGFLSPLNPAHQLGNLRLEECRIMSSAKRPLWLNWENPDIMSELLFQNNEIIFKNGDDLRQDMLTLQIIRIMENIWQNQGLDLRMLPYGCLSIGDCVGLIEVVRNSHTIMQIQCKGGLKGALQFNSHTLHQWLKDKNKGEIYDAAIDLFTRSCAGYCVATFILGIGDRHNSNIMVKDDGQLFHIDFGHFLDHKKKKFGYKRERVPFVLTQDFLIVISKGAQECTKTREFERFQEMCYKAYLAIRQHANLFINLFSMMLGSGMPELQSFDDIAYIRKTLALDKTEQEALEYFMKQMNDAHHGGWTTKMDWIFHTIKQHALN

One may read the IC50 as the concentration that inhibits the measured activity by half. On to `O=C(c1cc(Cc2n[nH]c(=O)c3ccccc23)ccc1F)N1CCc2c(nc(-c3cccc4[nH]ncc34)nc2N2CCOCC2)C1`, for which the IC50 is 6.17 nM in experiment [1] and 44.7 nM in experiment [2].
The matching figures for `Nc1cc(C(F)(F)F)c(-c2cc(N3CCN(C(=O)c4cc(Cc5n[nH]c(=O)c6ccccc56)ccc4F)CC3)nc(N3CCOCC3)n2)cn1`: 15.5 nM and 324 nM.
`Nc1ccc(-c2nc(N3CCOCC3)nc(N3CCN(C(=O)c4cc(Cc5n[nH]c(=O)c6ccccc56)ccc4F)CC3)n2)cc1`: the IC50 is 1.17 nM in experiment [1] and 331 nM in experiment [2].
The matching figures for `O=C(c1cc(Cc2n[nH]c(=O)c3ccccc23)ccc1F)N1CCN(c2nc(-c3ccc4[nH]ccc4c3)nc(N3CCOCC3)n2)CC1`: 0.692 nM and 692 nM.
Turning to `Nc1ccc(-c2nc(N3CCOCC3)nc(N3CCN(C(=O)c4cc(Cc5n[nH]c(=O)c6ccccc56)ccc4F)CC3)n2)c(F)c1`, the IC50 in experiment [1] was 0.724 nM; in experiment [2], 708 nM.
For `O=C(c1cc(Cc2n[nH]c(=O)c3ccccc23)ccc1F)N1CCN(c2nc(-c3cccc4[nH]ncc34)nc(N3CCOCC3)n2)CC1`, the IC50 in experiment [1] was 0.437 nM; in experiment [2] it was 347 nM.
Regarding `Nc1ccc(-c2nc(N3CCOCC3)nc(N3CCN(C(=O)c4cc(Cc5n[nH]c(=O)c6ccccc56)ccc4F)CC3)n2)cn1`, the half-inhibitory concentration (IC50) in experiment [1] is 1.07 nM; in experiment [2] it was 132 nM.
The matching figures for `Nc1cc(-c2nc(N3CCOCC3)nc(N3CCN(C(=O)c4cc(Cc5n[nH]c(=O)c6ccccc56)ccc4F)CC3)n2)ccc1F`: 1.1 nM and 2290 nM.
Take `Nc1ncc(-c2nc(N3CCOCC3)nc(N3CCN(C(=O)c4cc(Cc5n[nH]c(=O)c6ccccc56)ccc4F)CC3)n2)cc1C(F)(F)F`: the concentration for half-maximal inhibition (IC50) in experiment [1] was 1.12 nM; in experiment [2], 1200 nM.
The matching figures for `Nc1ccc(-c2nc3c(c(N4CCOCC4)n2)CCN(C(=O)c2cc(Cc4n[nH]c(=O)c5ccccc45)ccc2F)C3)cn1`: 7.94 nM and 30.2 nM.
`O=C(c1cc(Cc2n[nH]c(=O)c3ccccc23)ccc1F)N1CCN(c2nc(-c3cccc4[nH]ccc34)nc(N3CCOCC3)n2)CC1`: the 50% inhibitory concentration (IC50) was 0.646 nM in experiment [1] and 631 nM in experiment [2].
The matching figures for `Nc1ccc(-c2nc(N3CCOCC3)nc(N3CCN(C(=O)c4cc(Cc5n[nH]c(=O)c6ccccc56)ccc4F)CC3)n2)cc1F`: 0.832 nM and 562 nM.
As to `O=C(c1cc(Cc2n[nH]c(=O)c3ccccc23)ccc1F)N1CCN(c2nc(-c3ccc4cn[nH]c4c3)nc(N3CCOCC3)n2)CC1`, the IC50 in experiment [1] is 0.676 nM; in experiment [2], > 10000 nM.
Taken in the same sequence, the figures for `O=C(c1cc(Cc2n[nH]c(=O)c3ccccc23)ccc1F)N1CCc2c(nc(-c3cccc4[nH]ccc34)nc2N2CCOCC2)C1` were 4.9 nM and 43.7 nM.
Taken in the same sequence, the figures for `Nc1cc(C(F)(F)F)c(-c2nc(N3CCOCC3)nc(N3CCN(C(=O)c4cc(Cc5n[nH]c(=O)c6ccccc56)ccc4F)CC3)n2)cn1` were 9.55 nM and 170 nM.
